Target: PDE4B enzyme (Homo sapiens (Human), UniProt Q07343)
Experiment: PDE4B inhibitory activity, LANCE Ultra cAMP assay
Assay type: biochemical
Conditions: 50% inhibition from cAMP to 5′AMP
Protocol: In order to evaluate the PDE4B inhibitory activity of the compounds according to the present invention, the following experiment was performed using LANCE Ultra cAMP assay kit (Perkin Elmer, U.S.A).
Particularly, 5 μl of the 3 nM cAMP dissolved reaction buffer was added to each reaction well (LANCE Ultra cAMP assay kit). Then, each example compound dilution solution (2.5 μl) and PDE4B enzyme (0.1 ng/well, BPS Biosciences, San Diego, U.S.A) were added to the well, followed by incubation for 1 hour at 37° C. Next, 5 μl of ULight-anti-cAMP detection reactant supplemented with 5 μl of Eu-cAMP tracer and 1 mM IBMX (LANCE Ultra cAMP assay kit) was added thereto, followed by incubation for 1 hour at 37° C.

Sequence of PDE4B enzyme (Q07343 whole entry): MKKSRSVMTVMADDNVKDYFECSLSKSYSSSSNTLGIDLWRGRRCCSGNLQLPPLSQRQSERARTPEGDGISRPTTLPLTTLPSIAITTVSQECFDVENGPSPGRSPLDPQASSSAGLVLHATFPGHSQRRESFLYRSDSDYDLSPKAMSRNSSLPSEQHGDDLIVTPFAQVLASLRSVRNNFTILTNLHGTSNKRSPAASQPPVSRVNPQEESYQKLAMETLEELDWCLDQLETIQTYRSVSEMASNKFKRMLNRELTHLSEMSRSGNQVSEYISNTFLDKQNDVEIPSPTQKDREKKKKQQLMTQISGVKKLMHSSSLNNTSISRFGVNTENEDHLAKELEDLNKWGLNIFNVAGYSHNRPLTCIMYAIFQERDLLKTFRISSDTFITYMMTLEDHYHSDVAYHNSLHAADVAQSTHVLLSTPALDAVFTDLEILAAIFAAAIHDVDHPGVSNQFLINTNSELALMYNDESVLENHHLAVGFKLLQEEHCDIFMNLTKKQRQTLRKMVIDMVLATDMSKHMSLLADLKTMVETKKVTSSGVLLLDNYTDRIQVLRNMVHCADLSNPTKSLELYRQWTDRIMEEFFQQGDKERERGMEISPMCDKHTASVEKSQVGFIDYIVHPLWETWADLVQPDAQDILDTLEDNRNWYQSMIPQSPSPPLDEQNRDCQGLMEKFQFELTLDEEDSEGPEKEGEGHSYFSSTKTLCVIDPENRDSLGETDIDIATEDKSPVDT

Row | Structure (SMILES) | IC50 [nM]
1 | COc1ccc(-c2nc(SC)ncc2C(=O)Nc2c(Cl)cncc2Cl)cc1OC [Example 2, N-(3,5-dichloropyridine-4-yl)-4-(3,4-dimethoxyphenyl)-2-(methylthio)pyrimidine-5-carboxamide] | 178
2 | COc1ccc(-c2nc(SC)ncc2C(=O)Nc2ccncc2)cc1OC [Example 3, 4-(3,4-dimethoxyphenyl)-2-(methylthio)-N-(pyridine-4-yl)pyrimidine-5-carboxamide] | 95
3 | CSc1ncc(C(=O)NCCc2c[nH]c3ccccc23)c(N2CCOCC2)n1 [Example 4, N-(2-(1H-indole-3-yl)ethyl)-2-(methylthio)-4-morpholinopyrimidine-5-carboxamide] | 166
4 | COc1ccc(-c2nc(SC)ncc2C(=O)NC2CCOCC2)cc1OC [Example 5, 4-(3,4-dimethoxyphenyl)-2-(methylthio)-N-(tetrahydro-2H-pyran-4-yl)pyrimidine-5-carboxamide] | 239
5 | CSc1ncc(C(=O)Nc2ccc(F)cc2)c(N2CCOCC2)n1 [Example 6, N-(4-fluorophenyl)-2-(methylthio)-4-morpholinopyrimidine-5-carboxamide] | 367
6 | COc1ccc(CCNC(=O)c2cnc(SC)nc2N2CCOCC2)cc1OC [Example 7, N-(3,4-dimethoxyphenetyl)-2-(methylthio)-4-morpholinopyrimidine-5-carboxamide] | < 10
7 | COc1ccc(CNC(=O)c2cnc(C(F)(F)F)nc2N2CCOCC2)c(OC)c1 [Example 8, N-(2,4-dimethoxybenzyl)-4-morpholino-2-(trifluoromethyl)pyrimidine-5-carboxamide] | 74
8 | COc1ccc(CNC(=O)c2cnc(SC)nc2N2CCOCC2)c(OC)c1 [Example 9, N-(2,4-dimethoxybenzyl)-2-(methylthio)-4-morpholinopyrimidine-5-carboxamide] | 377
9 | CSc1ncc(C(=O)Nc2c(Cl)cncc2Cl)c(N2CCOCC2)n1 [Example 10, N-(3,5-dichloropyridine-4-yl)-2-(methylthio)-4-morpholinopyrimidine-5-carboxamide] | 73
10 | COc1ccc(NC(=O)c2cnc(C(F)(F)F)nc2N2CCOCC2)cc1OC [Example 11, N-(3,4-dimethoxyphenyl)-4-morpholino-2-(trifluoromethyl)pyrimidine-5-carboxamide] | 67
11 | COc1ccc(-c2nc(C(F)(F)F)ncc2C(=O)NC2CCOCC2)cc1OC [Example 12, 4-(3,4-dimethoxyphenyl)-N-(tetrahydro-2H-pyran-4-yl)-2-(trifluoromethyl)pyrimidine-5-carboxamide] | 266
12 | CCN(CC)C(=O)c1cnc(C(F)(F)F)nc1-c1ccc(OC)c(OC)c1 [Example 13, 4-(3,4-dimethoxyphenyl)-N,N-diethyl-2-(trifluoromethyl)pyrimidine-5-carboxamide] | 833
13 | COc1ccc(-c2nc(S(C)(=O)=O)ncc2C(=O)NC2CCOCC2)cc1OC [Example 14, 4-(3,4-dimethoxyphenyl)-2-(methylsulfonyl)-N-(tetrahydro-2H-pyran-4-yl)pyrimidine-5-carboxamide] | 506
14 | COc1ccc(-c2nc(C(F)(F)F)ncc2C(=O)NC2CC2)cc1OC [Example 15, N-cyclopropyl-4-(3,4-dimethoxyphenyl)-2-(trifluoromethyl)pyrimidine-5-carboxamide] | 252
15 | COc1ccc(-c2nc(C(F)(F)F)ncc2C(=O)Nc2c(Cl)cncc2Cl)cc1OC [Example 16, N-(3,5-dichloropyridine-4-yl)-4-(3,4-dimethoxyphenyl)-2-(trifluoromethyl)pyrimidine-5-carboxamide] | 44
16 | COc1ccc(-c2nc(SC)ncc2C(=O)NC2CC2)cc1OC [Example 18, N-cyclopropyl-4-(3,4-dimethoxyphenyl)-2-(methylthio)pyrimidine-5-carboxamide] | 477
17 | COc1ccc(-c2nc(S(C)(=O)=O)ncc2C(=O)NC2CC2)cc1OC [Example 19, N-cyclopropyl-4-(3,4-dimethoxyphenyl)-2-(methylsulfonyl)pyrimidine-5-carboxamide] | 189
18 | COc1ccc(-c2nc(SC)ncc2C(=O)Nc2cc(C(C)C)c(N)c(C(C)C)c2)cc1OC [Example 20, N-(4-amino-3,5-diisopropylphenyl)-4-(3,4-dimethoxyphenyl)-2-(methylthio)pyrimidine-5-carboxamide] | 745
19 | COc1ccc(-c2nc(C(F)(F)F)ncc2C(=O)Nc2cc(C(C)C)c(N)c(C(C)C)c2)cc1OC [Example 21, N-(4-amino-3,5-diisopropylphenyl)-4-(3,4-dimethoxyphenyl)-2-(trifluoromethyl)pyrimidine-5-carboxamide] | 222
20 | COc1ccc(NC(=O)c2cnc(SC)nc2N2CCN(CCO)CC2)cc1OC [Example 22, N-(3,4-dimethoxyphenyl)-4-(4-(2-hydroxyethyl)piperazine-1-yl)-2-(methylthio)pyrimidine-5-carboxamide] | 881
21 | O=C(NCCc1c[nH]c2ccccc12)c1cnc(C(F)(F)F)nc1N1CCOCC1 [Example 24, N-(2-(1H-indole-3-yl)ethyl)-4-morpholino-2-(trifluoromethyl)pyrimidine-5-carboxamide] | 469
22 | COc1ccc(-c2nc(C(F)(F)F)ncc2C(=O)NCCN2CCOCC2)cc1OC [Example 26, 4-(3,4-dimethoxyphenyl)-N-(2-morpholinoethyl)-2-(trifluoromethyl)pyrimidine-5-carboxamide] | 195
23 | COc1ccc(-c2nc(SC)ncc2C(=O)NCCN2CCOCC2)cc1OC [Example 27, 4-(3,4-dimethoxyphenyl)-2-(methylthio)-N-(2-morpholinoethyl)pyrimidine-5-carboxamide] | 860
24 | COc1ccc(NC(=O)c2cnc(SC)nc2-c2ccc(OC)c(OC)c2)cc1OC [Example 29, N,4-bis(3,4-dimethoxyphenyl)-2-(methylthio)pyrimidine-5-carboxamide] | 634
25 | COc1ccc(NC(=O)c2cnc(C(F)(F)F)nc2-c2ccc(OC)c(OC)c2)cc1OC [Example 30, N,4-bis(3,4-dimethoxyphenyl)-2-(trifluoromethyl)pyrimidine-5-carboxamide] | 61

Source: patent US12441690B2, “Benzamide derivative compound, method for preparing same, and pharmaceutical composition for treating or preventing inflammatory disease containing same as active ingredient” (SEOUL NATIONAL UNIVERSITY R&DB FOUNDATION, priority 2017, dated 2025)
